Common to all, as to assay: DTP human tumour cell line panel, 48 h
Test [1] relates to A549 NSCLC.
Test [2] concerns T-47D breast.
The test system of test [3] is RXF 393 renal.
The subject of test [4] is ACHN renal.
For test [5], the system named is KM12 colon.
The subject of test [6] is SN12C renal.
For test [7], the system named is HOP-92 NSCLC.
Test [8] relates to SR leukemia.
Test [9] has as its system UO-31 renal.
Test [10] has as its system MDA-N.
Test [11] deals with HCT-116 colon.
Test [12] relates to DU-145 prostate.
For test [13], the system named is HL-60(TB) leukemia.
For test [14], the system named is PC-3 prostate.
The subject of test [15] is OVCAR-5 ovarian.

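Five compound concentrations were applied to cells in 96-well plates for 48 hours; endpoints were derived by simple linear interpolation of the resulting dose-response curve. TGI: total growth inhibition.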 Bounds are passed on as bounds.

What is called TGI is the concentration at which net growth stops. The low end stands for more potent growth arrest, the high end for less potent growth arrest. With `CC1=NN(c2nc(N)nc(CCl)n2)C(C)(C)C1`, the TGI in test [1] was more than 100 µM; in [2], more than 100 µM; in [3], more than 100 µM; in [4], 31 µM; in test [5] it was 51.5 µM; in test [6], more than 68.7 µM. The TGI is 45.7 µM in [7]; more than 69.7 µM in test [8]; 19.7 µM in test [9]; more than 100 µM in test [10]; more than 70.1 µM in [11]; more than 100 µM in test [12]. The TGI in [13] is more than 24.9 µM; in test [14] it was more than 100 µM; in [15] it was more than 78 µM.
With `NNC(=O)c1cc(Cl)ccc1NC(=O)C12CC3CC(CC(C3)C1)C2`, the TGI in test [1] was 48.2 µM; in test [2], more than 100 µM; in test [3] it was more than 100 µM; in test [4] it was 77.8 µM; in [5], more than 100 µM; in test [6] it was 62.2 µM. Also, the TGI in [7] is more than 100 µM; in test [8] it was 88.3 µM; in test [9] it was 45.4 µM; in test [10], 70.5 µM; in test [11] it was 85.5 µM; in [12] it was more than 100 µM. The TGI in test [13] was 94.2 µM; in test [14] it was more than 100 µM; in test [15], 53.9 µM.
Take `NC(N)=NS(=O)(=O)c1ccc(NCc2cccc3c(=O)c4ccc(Cl)cc4oc23)cc1`: the TGI was more than 25 µM in [1]; more than 23.7 µM in test [2]; 7.17 µM in test [3]; more than 13.6 µM in test [4]; more than 25 µM in test [5]; more than 14.2 µM in test [6]. Also, the TGI was 17.8 µM in test [7]; more than 25 µM in test [8]; more than 12.1 µM in test [9]; more than 19.1 µM in test [10]; more than 22.4 µM in [11]; 17.3 µM in [12]. The values for the TGI in test [13], in [14] and in [15] were 5.94 µM, more than 14 µM and more than 18.9 µM, respectively.

The values are drawn from PubChem BioAssay (NCI).
